In PubChem BioAssay AID651581 (Sanford-Burnham Center for Chemical Genomics, 2012):
The source made the active and inactive calls. The rule behind the calls is not given here.

Columns and labels:
[1] = target: Endothelial PAS domain-containing protein 1 (Homo sapiens) (UniProt Q99814); test: HIF-2a and HIF-1a reporter inhibition panel, dose response, selectivity assay for HIF-2a inhibitor project, cell-based, luminescence (AID 651581)
[2] = target: Hypoxia-inducible factor 1-alpha (Homo sapiens) (UniProt Q16665); test: as above; details: HIF-1a
Hypoxia-inducible factor 1-alpha (Homo sapiens), sequence (Q16665 whole entry, looked up): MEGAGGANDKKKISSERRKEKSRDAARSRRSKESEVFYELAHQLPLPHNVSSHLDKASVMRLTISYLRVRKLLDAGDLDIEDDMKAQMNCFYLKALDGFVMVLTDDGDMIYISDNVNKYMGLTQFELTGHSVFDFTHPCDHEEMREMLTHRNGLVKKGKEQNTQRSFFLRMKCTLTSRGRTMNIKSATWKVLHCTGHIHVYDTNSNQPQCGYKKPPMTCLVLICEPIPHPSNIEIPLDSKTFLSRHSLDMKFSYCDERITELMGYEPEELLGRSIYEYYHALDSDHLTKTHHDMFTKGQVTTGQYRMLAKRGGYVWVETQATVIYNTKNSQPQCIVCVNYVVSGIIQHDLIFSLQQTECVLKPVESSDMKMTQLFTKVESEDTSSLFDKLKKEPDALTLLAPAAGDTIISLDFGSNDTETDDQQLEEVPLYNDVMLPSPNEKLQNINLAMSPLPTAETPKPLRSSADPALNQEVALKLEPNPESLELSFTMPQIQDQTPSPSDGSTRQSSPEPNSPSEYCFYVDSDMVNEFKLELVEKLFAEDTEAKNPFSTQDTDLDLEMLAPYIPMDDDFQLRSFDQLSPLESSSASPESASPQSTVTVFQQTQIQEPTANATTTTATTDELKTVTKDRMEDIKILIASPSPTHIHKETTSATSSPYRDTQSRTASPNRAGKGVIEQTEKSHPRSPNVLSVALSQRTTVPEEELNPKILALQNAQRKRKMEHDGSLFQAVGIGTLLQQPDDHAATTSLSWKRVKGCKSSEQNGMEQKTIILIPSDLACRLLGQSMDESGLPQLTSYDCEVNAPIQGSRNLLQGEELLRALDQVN

Row | SMILES | IC50 ([1]; HIF-2a PANC, mean of runs) | IC50 ([1]; HIF-2a PANC, run 1) [µM] | IC50 ([1]; HIF-2a PANC, run 2) [µM] | IC50 ([1]; HIF-2a, mean of runs) | IC50 ([1]; HIF-2a, run 1) [µM] | IC50 ([1]; HIF-2a, run 2) [µM] | IC50 ([2]; mean of runs) | IC50 ([2]; run 1) [µM] | IC50 ([2]; run 2) [µM]
1 | Cc1ccc(NC(=S)NNc2ncc(C(F)(F)F)cc2Cl)cc1 | 1.29 µM | 1.66 | 0.928 | 4.58 µM | 4.66 | 4.49 | 27 µM | 20.4 | 33.5
2 | O=C(NNc1nc2ccccc2o1)c1ccccc1 | > 99 µM (inactive) | > 99 | > 99 | 6.37 µM | 6.68 | 6.06 |  | 46.1 | > 99
3 | O=C1C=C(c2ccc(Cl)cc2)C(=O)N1Nc1ccccc1 | inactive | 29.9 | 75.9 | 5.66 µM | 5.69 | 5.63 | 25.8 µM | 22.8 | 28.9
4 | CC(=O)N(C(C)=O)c1ccc(Oc2ccc(Oc3ccc(N(C(C)=O)C(C)=O)cc3)cc2)cc1 | 1.51 µM | 1.86 | 1.15 |  | > 99 | 1.58 | inactive | 12.2 | 20.3
5 | CCOC(=O)c1cc(-c2csc(-c3ccc(C(C)(C)C)cc3)n2)on1 | > 99 µM (inactive) | > 99 | > 99 | 4.82 µM | 4.83 | 4.81 | 55.7 µM | 68.5 | 42.9

Continued, values first:

Row | IC50 ([1]; HIF-2a PANC, mean of runs) | IC50 ([1]; HIF-2a PANC, run 1) [µM] | IC50 ([1]; HIF-2a PANC, run 2) [µM] | IC50 ([1]; HIF-2a, mean of runs) | IC50 ([1]; HIF-2a, run 1) [µM] | IC50 ([1]; HIF-2a, run 2) [µM] | IC50 ([2]; mean of runs) | IC50 ([2]; run 1) [µM] | IC50 ([2]; run 2) [µM] | SMILES
6 |  | > 99 | > 99 |  | > 99 | 1.57 |  | > 99 | 38.7 | CCC(=O)Nc1cccc(C(=O)c2ccc(C)c(C)c2)c1
7 | 18.4 µM | 20.3 | 16.6 | inactive | 11.7 | 9.93 | inactive | 12.9 | 20.6 | CC(=O)c1ccc(NC(=O)c2cnn3ccccc23)cc1
8 | 2.4 µM | 2.9 | 1.91 | 3.26 µM | 3.59 | 2.92 | 24.3 µM | 3.84 | 44.7 | Cc1nc2cc(-c3ccccc3)nn2c(C)c1CCC(=O)NC(C)c1ccc2c(c1)OCCO2 (centres undefined)
9 |  | > 99 | < 30 | 2.86 µM | 2.92 | 2.79 |  | > 99 | > 99 | O=C(OCC(F)(F)F)c1cccc(COc2ccc3ccccc3c2)c1
